Data from publication PMC10021017 (Journal of the American Chemical Society, 2023).

Experiments:
[1] = molecular target: T1, HydB (HydABCTk, electron-bifurcating [FeFe]-hydrogenase) (Thermoanaerobacter kivui, UniProt A0A097ATG4); experiment: cryoEM; assay type: binding
T1 sequence (A0A097ATG4 1-630): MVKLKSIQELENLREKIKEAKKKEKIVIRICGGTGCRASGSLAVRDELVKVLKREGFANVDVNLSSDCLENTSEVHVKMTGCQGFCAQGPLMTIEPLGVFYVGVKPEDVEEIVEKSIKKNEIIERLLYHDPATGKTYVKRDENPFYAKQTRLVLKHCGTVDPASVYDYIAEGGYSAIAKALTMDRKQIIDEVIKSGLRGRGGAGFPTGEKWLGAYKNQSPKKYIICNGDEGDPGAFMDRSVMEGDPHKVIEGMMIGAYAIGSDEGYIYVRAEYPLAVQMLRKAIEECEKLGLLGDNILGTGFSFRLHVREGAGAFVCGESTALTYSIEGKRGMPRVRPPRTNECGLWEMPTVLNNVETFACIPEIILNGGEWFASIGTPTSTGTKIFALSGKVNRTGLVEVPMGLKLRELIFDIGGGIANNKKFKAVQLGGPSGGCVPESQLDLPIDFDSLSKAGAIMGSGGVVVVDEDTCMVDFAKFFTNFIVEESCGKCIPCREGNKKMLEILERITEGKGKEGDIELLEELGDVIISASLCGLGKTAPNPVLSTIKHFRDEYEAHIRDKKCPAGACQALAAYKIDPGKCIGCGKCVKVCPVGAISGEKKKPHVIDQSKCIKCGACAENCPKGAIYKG
T1 sequence (A0A097ATG3 1-571 partner): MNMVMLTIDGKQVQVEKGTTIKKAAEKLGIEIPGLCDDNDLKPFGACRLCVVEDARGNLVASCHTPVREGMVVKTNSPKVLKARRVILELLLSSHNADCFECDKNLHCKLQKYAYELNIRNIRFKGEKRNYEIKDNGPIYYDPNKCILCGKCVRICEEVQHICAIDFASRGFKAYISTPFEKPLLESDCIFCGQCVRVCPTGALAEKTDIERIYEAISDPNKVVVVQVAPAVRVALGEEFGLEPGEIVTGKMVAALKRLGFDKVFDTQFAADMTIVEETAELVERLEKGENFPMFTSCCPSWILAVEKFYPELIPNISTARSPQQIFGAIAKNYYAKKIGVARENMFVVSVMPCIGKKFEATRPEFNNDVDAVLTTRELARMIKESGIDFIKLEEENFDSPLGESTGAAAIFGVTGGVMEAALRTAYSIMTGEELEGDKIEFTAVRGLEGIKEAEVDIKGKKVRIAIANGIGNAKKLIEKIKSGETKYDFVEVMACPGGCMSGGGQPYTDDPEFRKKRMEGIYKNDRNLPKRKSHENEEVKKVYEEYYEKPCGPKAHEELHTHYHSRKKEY
T1 sequence (A0A097ATI0 1-170 partner): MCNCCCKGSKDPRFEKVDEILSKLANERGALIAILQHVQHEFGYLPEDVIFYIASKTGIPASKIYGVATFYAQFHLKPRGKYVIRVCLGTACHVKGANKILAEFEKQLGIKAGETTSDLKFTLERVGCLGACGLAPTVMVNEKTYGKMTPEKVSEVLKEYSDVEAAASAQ

HydB (ΔB2-HydABCTk) = HydB (ΔB2-HydABCTk) (Thermoanaerobacter kivui, UniProt A0A097ATG4, C82G/C86G)
[2] = molecular target: HydABC heterotrimer (protomer) of the electron-bifurcating [FeFe]-hydrogenase from Thermoanaerobacter kivui (Thermoanaerobacter kivui); experiment: cryo-EM structure
[3] = molecular target: T2, HydB subunit of the electron-bifurcating [FeFe]-hydrogenase HydABC from Thermoanaerobacter kivui (Thermoanaerobacter kivui, UniProt A0A097ATG4 1-630); experiment: cryo-EM structure
T2 sequence: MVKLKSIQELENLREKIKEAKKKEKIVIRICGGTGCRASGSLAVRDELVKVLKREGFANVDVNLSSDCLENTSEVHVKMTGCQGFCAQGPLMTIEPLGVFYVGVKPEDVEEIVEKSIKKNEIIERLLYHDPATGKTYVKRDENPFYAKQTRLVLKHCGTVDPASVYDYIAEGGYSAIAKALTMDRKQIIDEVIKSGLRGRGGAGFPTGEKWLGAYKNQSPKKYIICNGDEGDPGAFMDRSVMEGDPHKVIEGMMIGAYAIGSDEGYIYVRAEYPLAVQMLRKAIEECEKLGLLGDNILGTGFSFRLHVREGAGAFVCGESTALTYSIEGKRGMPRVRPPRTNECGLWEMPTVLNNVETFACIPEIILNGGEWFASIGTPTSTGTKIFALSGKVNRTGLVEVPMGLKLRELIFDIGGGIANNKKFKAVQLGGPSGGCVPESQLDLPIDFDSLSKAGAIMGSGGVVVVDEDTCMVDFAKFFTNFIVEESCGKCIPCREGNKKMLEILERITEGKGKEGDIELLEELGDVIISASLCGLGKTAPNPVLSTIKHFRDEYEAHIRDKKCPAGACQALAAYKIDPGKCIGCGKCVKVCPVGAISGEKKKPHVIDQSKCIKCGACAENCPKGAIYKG

With Cc1cc2nc3c(=O)[nH]c(=O)nc-3n(C[C@H](O)[C@H](O)[C@H](O)COP(=O)(O)O)c2cc1C [FMN] the “cryoEM (reduced 3.12 A; oxidized 3.49 A, 8BEW); TLC of bound flavin” value [1] was “modified Rossmann fold with four (instead of six) β-sheets that noncovalently bind the FMN cofactor in a solvent-accessible cavity”.

NC(=O)c1ccc[n+]([C@@H]2O[C@H](COP(=O)(O)OP(=O)(O)OC[C@H]3O[C@@H](n4cnc5c(N)ncnc54)[C@H](OP(=O)(O)O)[C@@H]3O)[C@@H](O)[C@H]2O)c1 [NADP^+] showed a Kd (HydB (ΔB2-HydABCTk)) of 65 to 71 µM.

With “HydABC heterotrimer (protomer) of the electron-bifurcating [FeFe]-hydrogenase from Thermoanaerobacter kivui (from UniProt A0A097ATG4 1-630; A0A097ATI0 1-170) (complex)” the stoichiometry N [2] was 2.

B1: HydC subunit of the electron-bifurcating [FeFe]-hydrogenase HydABC from Thermoanaerobacter kivui (natural protein)
chain: MCNCCCKGSKDPRFEKVDEILSKLANERGALIAILQHVQHEFGYLPEDVIFYIASKTGIPASKIYGVATFYAQFHLKPRGKYVIRVCLGTACHVKGANKILAEFEKQLGIKAGETTSDLKFTLERVGCLGACGLAPTVMVNEKTYGKMTPEKVSEVLKEYSDVEAAASAQ
B1: binds [3].
